Data on 1 substance can be found in patent publication US11767353B2, “Trail compositions with reduced immunogenicity” (Theraly Fibrosis, Inc., priority 2020, dated 2023).

Data set [1] has as its system COLO 205 cells. The data set can be described thus: Cell viability bioassay (CELL TITER-GLO) on COLO 205 cells. To be noted: colorectal cancer cells COLO-205; read-out: potency in cell viability bioassay. Format: cell-based, Human. The source says: TLY012 is a PEGylated form of rhTRAIL, genetically fused to a humanized coiled-coil isoleucine “zipper” (miLZ) at the N-terminus. It is a DR4/DR5 receptor agonist and as such is known to induce apoptosis in Human colon adenocarcinoma cells COLO 205 resulting in inhibition of cell proliferation. CELL TITER-GLO™ (Promega, WI) was used to measure luminescence in conventional luciferase assay system. This assay is a homogeneous method to determine the number of metabolically active cells based on quantitation of the ATP present. […]
Assay Procedure. […] The 96-well plates were placed into a 37±1.0° C.; 5±0.5% CO2; ≥85% relative humidity cell culture incubator in a single layer and incubated for 1±0.5 hours until cells are ready. […] As a result, inhibition of cell proliferation is measured by adding the CELL TITER-GLO™ solution to the cells, the lysed cells release ATP. […]
The growth medium was RPMI1640 with 10% FBS, glutamine, penicillin/streptomycin solution. […] Cell suspension was transferred to the white 96-well plates and luminescence was measured by BIOTEK plate reader.
Data were analyzed using BioTek Gen5secure software. The dose response curves were generated using the four-parameter fit logistic model and the IC50 values for reference standard and test samples were calculated. Potency of the test sample is expressed as the ratio of the IC50 values of the test and reference standard samples. […]
(ATP-based viability assays read luminescence as a measure of living cells.)

For data set [2], the system named is primary human hepatocytes. As to the kind of experiment: Off-target toxicity in primary human hepatocytes. Format: cell-based. The note with it: concentrations up to 100 nM.
Data set [3] deals with ASPC-1/PSC xenografts. As to the kind of experiment: PSC/ASPC-1 subcutaneous xenograft in athymic nude mice. The data set is classed as in vivo. The method, then: Six-week-old athymic nude mice were anesthetized for all procedures 5×10^6ASPC-1 cells (human pancreas adenocarcinoma ascites metastasis cell line derived from nude mouse xenografts initiated with cells from the ascites of a patient with cancer of the pancreas) were mixed with 5×10^4 PSC cells and injected in a subcutaneous in athymic nude mice. Before injection, the cells were trypsinized, counted, washed twice in 1×PBS and resuspended in 100 μl of Matrigel® matrix (Corning), and injected between the scapulae. Two weeks after the tumor transplantation, mice were injected with TLY012 via intravenous (IV) injection (10 mg/kg, every other day) for 2 weeks, while control mice received PBS. Western blot was performed on tissue extracts with antibodies against GAPDH (Santa Cruz 5 Biotechnology, sc-1694), α-SMA (Sigma, A2547), GRP78 (Santa Cruz Biotechnology, sc-13968), DR4 (Abcam, Cambridge, Mass., #13890), DR5 (Abcam, #47179), PDGF-Rb (Santa Cruz Biotechnology, sc-432), and Cl.PARP-1 (Cell Signaling Technology, #5625).
Comparative quantitative RT-PCR (qPCR) was performed in the tumor sample for fibrogenic markers. qPCR was performed in triplicate for each sample using fast SYBR Green Master Mix (Thermo Fisher Scientific) and StepOnePlus Real-Time PCR System (Thermo Fisher Scientific). The expression levels of target genes were normalized to the expression of 18s and calculated based on the comparative cycle threshold Ct method (2^−ΔΔCt).
Collagen deposition was detected with Masson's Trichrome staining and microscopy.
Mouse xenografts were generated as in Example 8. Two weeks after the tumor transplantation, mice were injected with TLY012 via intravenous (IV) injection (10 mg/kg, every other day) and/or sorafenib (20 mg/kg, oral everyday) for 2 weeks. The mice were euthanized when the tumor volume reached 1500 mm^3 and images of the excised xenografts recorded and tumor weight measured.

Data set [4] concerns Pancreatic cancer associated fibroblasts (CAF08).
Procedure: Pancreatic cancer associated fibroblasts (CAF08) and maintenance media (PC00B5) were obtained from Vitro Biopharma. 100 of PSCs were culture-activated for 7 to have the confluent population of activated cells or 2×10^4 cells of CAF08 were cultured on a 96 well microplate (Corning, CLS3917) for 24h and were incubated with TLY012 (at 30 ng/ml or 100 ng/ml) for 3h. After incubation, 50 μL of Caspase 3/7 substrate/lysis buffer was added to each well and incubated for 30 min after 30 min of equilibration period to room temperature. The luminescence of each sample was measured on a plate reader (Bio-Tek Instruments Inc) with parameters of 1 min lag time and 0.5 sec/well-read time (n=3).
For immunoblot, 100 of PSCs were culture activated on a 6 well plate for 7 days or 2×10^5 of CAF08 cells were plated on 6-well plates followed by control treatment or treatment with TLY012 (at 30 ng/ml or 100 ng/ml) for 3h. The lysates from the cells were tested for the presence of Cl.PARP-1 and SMA using Western bot.
Pancreatic cancer associated fibroblasts (CAF08) and maintenance media (PC00B5) were obtained from Vitro Biopharma and maintained in Pancreatic Stellate CAF maintenance media (Vitro Biopharma, Cat. No. PC00B5).
After incubation, 50 uL of Caspase 3/7 substrate/lysis buffer from Caspase3/7 Glo assay kit (Promega, Madison USA) was added to each well and incubated for 30 min after 30 min of equilibration period to room temperature. The luminescence of each sample was measured on a plate reader (Bio-Tek Instruments Inc) with parameters of 1 min lag time and 0.5 sec/well-read time (n=3).
For Western blot, 2×10^5 cells were plated on 6-well plates and were incubated with the same cytotoxic agents as indicated followed by Western blot detection of Cl.PARP-1, PD-L1, DR5, DR4, α-SMA, and β-actin.

“Also recorded” adds a separate entry of the source.

Regarding “TLY012: PEGylated (5 kDa PEG-aldehyde) recombinant human TRAIL (114-281) fused to modified isoleucine zipper (miLZ) at N-terminus; SEQ ID NO:30 trimer”, in data set [1], the IC50 stood at 0.0155 nM. The off-target toxicity entry in data set [2] is “did not show any off-target toxicity”. Moreover, in data set [3] (TLY012 IV 10 mg/kg every other day and/or sorafenib 20 mg/kg oral everyday for 2 weeks), the “tumor weight, Mean” value came out at 1109.5 mg. For the same substance, the “collagen deposition, Masson's Trichrome staining” value in data set [3] (TLY012 IV 10 mg/kg every other day, 2 weeks, 10 mg/kg) is on record as “reduced the levels of collagen; also recorded: markedly reduced collagen deposition”. Moreover, the “PDGF-Rb, DR5, DR4 (and GRP78) protein levels in tumor, Western blot” value in data set [3] (TLY012 IV 10 mg/kg every other day, 2 weeks, vs PBS controls, 10 mg/kg) is “markedly reduced; also recorded: significantly decreased”. In addition, the “mRNA levels of fibrogenic markers Acta2, Pdgf-r, Tgf-b in tumor (qPCR)” value in data set [3] (TLY012 IV 10 mg/kg every other day, 2 weeks, vs control, 10 mg/kg) was “decreased; also recorded: significantly reduced”. The “Cl.PARP-1, immunoblot” value in data set [4] (TLY012 30 or 100 ng/ml for 3h) is on record as “detected”. Besides, the “caspase 3/7 activity (RLU)” value in data set [4] (TLY012 30 or 100 ng/ml for 3h, vs control treatment) is on record as “activated caspase 3/7”. Further, in data set [4] (pancreatic CAF), the “protein levels of α-SMA, Western blotting” value is “significantly decreased”.
